Measurements: patent US6488164B2, “Compositions including modafinil for treatment of attention deficit hyperactivity disorder and multiple sclerosis fatigue” (Cephalon, Inc., priority 1999, dated 2002)

Key:
MS fatigue = conditions: cited from earlier work
[1] = tested on: Fos-IR neurons in cingulate cortex, TMN, VTA; assay: Fos immunohistochemistry cell counts in rat brain, modafinil given at midnight (Example 1); format: in vivo; conditions: rats
Method: (§1) Experimental Design: In the following examples, rats were sacrificed two hours following treatment, and the brains were analyzed using immunohistochemistry for Fos. In Examples 1 and 2, rats were instrumented for electroencephalogram (EEG) and electromyogram (EMG) recordings. To avoid the stress of handling during administration of modafinil or vehicle, chronic catheters were placed in the peritoneal cavity for administration of modafinil or vehicle.
(§2) Animals and Recording Environment: 65, male, Sprague-Dawley rats (Harlan) weighing 270-330 g were housed individually in a pathogen-free barrier facility in a room maintained at 21.5-22.5° C. with lights on at 7 AM and off at 7 PM. Rats had food and water available ad lib. At least 3 days before each experiment, rats were placed into a light-tight, sound-attenuated recording chamber (Biocube) in an isolated room. Light intensity was 100-150 lux at midlevel inside each cage. The Institutional Animal Care and Use Committees of Beth Israel Deaconess Medical Center and Harvard Medical School approved all procedures.
(§3) Animal Surgery: Under chloral hydrate anesthesia (350 mg/kg ip), the rats of Examples 1 and 2 were surgically implanted with four EEG screws (AP: +3, −4; RL: +2,−2 from bregma) lightly contacting the dura and two EMG wires (Plastics One, Roanoke, Va.) below the nuchal muscles. The leads were connected to a six channel connector (Plastics One) which was affixed to the skull with dental acrylic. A telemetric temperature transmitter (TA10TA-F40, Data Sciences International, St. Paul, Minn.) was placed in the peritoneal cavity of all but 5 rats. To administer drugs without handling the rats, an 80 cm silastic catheter (1 mm I.D., Baxter Scientific Products) was inserted into the peritoneal cavity, subcutaneously tunneled to the scalp, cemented in place with dental acrylic, and protected externally by a spring. This intraperitoneal catheter was filled with heparinized, pyrogen-free saline and flushed weekly and 3 days prior to the experiment. Animals recovered at least 14 days and then acclimated to recording cables for three days prior to the start of physiological recordings.
(§4) Drug Administration: Modafinil (lot #PA 008; Cephalon, Inc., West Chester, Pa.) was suspended in a solution of 0.25% methylcellulose (pH=7.4, Dow Chemical Inc., Midland, Mich.) in 0.9% pyrogen-free saline. The drug was administered in a volume of 2.0 ml/kg at doses of 150 mg/kg. Control animals received an equal volume of methylcellulose vehicle. Catheters were then flushed with 1 ml 0.9% saline to assure delivery of drug into the peritoneal cavity. A red flashlight was used to aid injections performed in the dark.
(§5) Histology and Immunohistochemistry: Two hours following drug injections, animals were deeply anesthetized with chloral hydrate (600 mg/kg ip) and transcardially perfused with 100 ml 0.9% saline followed by 500 ml of phosphate buffered 10% formalin, pH 7.0 (Sigma). Brains were removed, postfixed for 4 hours in formalin, and then allowed to equilibrate in 20% sucrose in 0.1 M phosphate buffered saline (PBS), with 0.02% sodium azide (Sigma) at 4° C. Brains were sectioned (1:5 series, 30 μm) on a freezing microtome and stored in PBS-azide at 4° C. One series from each brain was stained for Fos using previously described methods (Elmquist et al., 1996). […]

[2] = tested on: Fos-IR neurons in VLPO, TMN, cortex; assay: Fos immunohistochemistry cell counts in rat brain, modafinil given at noon (Example 2); format: in vivo
Method: as §1, §2, §3, §4, §5

wakefulness [3] = conditions: rats, cats, canines, non-human primates; also sleep apnea and narcolepsy models; cited from earlier work
[4] = tested on: TMN of the posterior hypothalamus; conditions: cats, wake-promoting dose; cited from earlier work
TMN = conditions: rats, wake-promoting doses; cited from earlier work
wakefulness [5] = conditions: cited from earlier work
[6] = modafinil 150 mg/kg ip at midnight, 2 h after treatment, mean ± standard error, n=6
[7] = rats on normal LD cycle, 150 mg/kg at noon
[8] = rats, modafinil 150 mg/kg ip at noon, 2 h after treatment, n=7

In the case of `NC12CC3CC(CC(C3)C1)C2` [Amantadine, amantadine], the “Patients with benefit in MS fatigue” value (MS fatigue; double blind, randomized study) is given as 79%.
With `NC(=O)C[S+]([O-])C(c1ccccc1)c1ccccc1` (stereo not drawn) [Modafinil, modafinil] the “Fos-IR neurons in TMN relative to controls” value ([1]; 150 mg/kg at midnight) was “four times as many”, the “Fos immunoreactivity in the cortex versus controls” value ([1]; 150 mg/kg at midnight, more pronounced in cingulate and pyriform cortex) was “more Fos immunoreactivity in the cortex than the controls” and the “Fos-IR cell count, TMN” value [1, 6] was 46 ± 4. The “Fos-IR cell count, VTA” value [1, 6] was 12 ± 3, the “Fos-IR cell count, cingulate cortex” value [1, 6] was 191 ± 38 and the “Number of Fos-IR neurons in the TMN (in words)” value [2, 7] was “markedly increased”. For the same compound, the “Number of Fos-IR neurons in the VLPO (in words)” value [2, 7] was “decreases”, the “Expression of Fos in frontal and cingulate cortex (in words)” value ([2]; rats, 150 mg/kg at noon) was “increased expression of Fos” and the “Fos-IR cell count, TMN” value [2, 8] was 43 ± 5. For the same compound, the “Fos-IR cell count, VLPO” value [2, 8] was 26 ± 3, the “Wakefulness (in words)” value (wakefulness [3]) was “promotes wakefulness” and the “Activation of the TMN of the posterior hypothalamus (in words)” value [4] was “failed to cause activation of the TMN”. The “Association of modafinil-induced wakefulness with activation of the TMN (in words)” value (TMN) was “not associated with activation of the TMN”, the “Tolerability in clinical trials” value (wakefulness [5]; 400 mg/day, humans) was “well tolerated” and the “Optimum wakefulness promoting dose” value (wakefulness [5]; adult humans) was 200 mg/day. The “Lower threshold of wake-promoting doses” value (wakefulness [5]; human oral, known in the art) was “about 100 mg/day”.
In the case of `NC1=NC(=O)C(c2ccccc2)O1` (stereo not drawn) [pemoline], the “Beneficial effect in MS fatigue (in words)” value (MS fatigue; same study, MS patients) is given as “failed to show a beneficial effect”.
